We go through 16 compounds from patent US11370786B2, “GLS1 inhibitors for treating disease” (Board of Regents, The University of Texas System, priority 2014, dated 2022).

For one assay, the system named is A549 cells. Nature of the assay: Proliferation Assay (A549 viability, Cell Titer Fluor, 72 hours). The following applies: Homo sapiens, A549, 72 h. The assay is classed as cell-based. The protocol:
A549 cells were routinely maintained in RPMI 1640 media (Gibco catalog number 11875-093) supplemented with 10% dialyzed fetal bovine serum using a humidified incubator (37° C., 5% CO2 and ambient O2). In preparation for the viability assay, cells were inoculated into 384-well black CulturPlates (Perkin Elmer) at a density of 1000 cells/well in a volume of 40 uL. Following a 24-hour incubation at 37° C., 5% CO2 and ambient O2, cells were treated with compound ([…]) in a final DMSO concentration of 0.5% (v/v). The microplates were then incubated for 72 hours (37° C., 5% CO2 and ambient O2). Cell Titer Fluor (Promega) was subsequently added (10 uL of 6× reagent) and mixed for 15 minutes at room temperature. The plates were then incubated for 30 minutes (37° C., 5% CO2 and ambient O2) and fluorescence was subsequently read on the Perkin Elmer Envision plate reader. IC50 values were calculated using a four-parameter logistic curve fit.
The compound `O=C(NCc1cccc(OC(F)(F)F)c1)c1cn(CCCCn2cc(C(=O)NCc3ccc(C(F)(F)F)cn3)nn2)nn1` [Example 81, 1-{4-[4-({[3-(trifluoromethoxy)phenyl]methyl}carbamoyl)-1H-1,2,3-triazol-1-yl]butyl}-N-{[5-(trifluoromethyl)pyridin-2-yl]methyl}-1H-1,2,3-triazole-4-carboxamide] displayed a concentration giving a half-maximal response (EC50) below 100 nM.
The same measure, in the same setting: the result for `O=C(NCc1cc(OC(F)(F)F)ccc1F)c1cn(CCC(F)Cn2cc(C(=O)NCc3ccccn3)nn2)nn1` (stereo not shown) [Example 369, 1-{2-fluoro-4-[4-({[2-fluoro-5-(trifluoromethoxy)phenyl]methyl}carbamoyl)-1H-1,2,3-triazol-1-yl]butyl}-N-(pyridin-2-ylmethyl)-1H-1,2,3-triazole-4-carboxamide] reads below 100 nM.

The target in a further assay is GLS1 (purified recombinant human GAC) (Homo sapiens (Human), UniProt O94925). Nature of the assay: GLS1 Enzymatic Activity Assay (dual-coupled glutamate oxidase/HRP Amplex UltraRed). It counts as biochemical.
Chain of GLS1 (purified recombinant human GAC) (O94925 other isoform, or with tags, fused parts or gaps): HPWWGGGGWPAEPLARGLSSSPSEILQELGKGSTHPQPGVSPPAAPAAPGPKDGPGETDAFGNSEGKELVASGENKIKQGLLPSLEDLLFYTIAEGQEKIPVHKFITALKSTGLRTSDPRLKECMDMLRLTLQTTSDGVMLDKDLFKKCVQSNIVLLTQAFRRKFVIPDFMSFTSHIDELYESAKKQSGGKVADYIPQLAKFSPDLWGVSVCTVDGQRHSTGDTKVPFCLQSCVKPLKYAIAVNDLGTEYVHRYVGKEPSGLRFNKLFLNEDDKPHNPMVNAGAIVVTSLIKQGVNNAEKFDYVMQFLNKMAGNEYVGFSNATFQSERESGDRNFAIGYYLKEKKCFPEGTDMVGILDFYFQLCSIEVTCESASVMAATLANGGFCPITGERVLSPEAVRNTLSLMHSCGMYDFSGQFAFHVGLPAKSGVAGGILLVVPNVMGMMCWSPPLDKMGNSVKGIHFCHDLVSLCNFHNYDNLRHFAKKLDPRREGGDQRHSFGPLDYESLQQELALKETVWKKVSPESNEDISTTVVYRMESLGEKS
Settings: not given
As for `CNC(=O)c1cn(CCCCc2ccc(NC(=O)Cc3cc(Cl)ccn3)nn2)nn1` [Example 191, 1-(4-{6-[2-(4-chloropyridin-2-yl)acetamido]pyridazin-3-yl}butyl)-N-methyl-1H-1,2,3-triazole-4-carboxamide], the IC50 was below 100 nM.
Same read-out and setting: the result for `CNC(=O)c1cn(CCCCc2ccc(NC(=O)Cc3cncc(Br)c3)nn2)nn1` [Example 546, 1-(4-{6-[2-(5-bromopyridin-3-yl)acetamido]pyridazin-3-yl}butyl)-N-methyl-1H-1,2,3-triazole-4-carboxamide] reads below 100 nM; that for `CNC(=O)c1cn(CCCCc2ccc(NC(=O)Cc3cc(-c4cccc(OC(F)(F)F)c4F)ccn3)nn2)nn1` [Example 607, 1-(4-(6-(2-(4-(2-fluoro-3-(trifluoromethoxy)phenyl)pyridin-2-yl)acetamido)pyridazin-3-yl)butyl)-N-methyl-1H-1,2,3-triazole-4-carboxamide], below 100 nM.
Same read-out and setting: the result for `CNC(=O)c1cn(CC(F)CCc2ccc(NC(=O)Cc3cc(OC(C)C(F)(F)F)ccn3)nn2)nn1` (stereo not shown) [Example 266, 1-(2-fluoro-4-(6-(2-(4-((1,1,1-trifluoropropan-2-yl)oxy)pyridin-2-yl)acetamido)pyridazin-3-yl)butyl)-N-methyl-1H-1,2,3-triazole-4-carboxamide] reads below 100 nM; that for `CNC(=O)c1cn(CCCCc2ccc(NC(=O)Cc3ccc(Cl)nc3)nn2)nn1` [Example 544, 1-(4-{6-[2-(6-chloropyridin-3-yl)acetamido]pyridazin-3-yl}butyl)-N-methyl-1H-1,2,3-triazole-4-carboxamide], below 100 nM; that for `O=C(Cc1cncc(OC2CC(F)(F)C2)c1)Nc1ccc(CCCCn2cc(C(=O)NCc3cc(C(F)(F)F)ccn3)nn2)nn1` [Example 230, 1-(4-(6-(2-(5-(3,3-difluorocyclobutoxy)pyridin-3-yl)acetamido)pyridazin-3-yl)butyl)-N-((4-(trifluoromethyl)pyridin-2-yl)methyl)-1H-1,2,3-triazole-4-carboxamide], below 100 nM.
The same measure, in the same setting: the figure for `CNC(=O)c1cn(CCCCc2ccc(NC(=O)Cc3cncc(OC4CC(F)(F)C4)c3)nn2)nn1` [Example 202, 1-(4-(6-(2-(5-(3,3-difluorocyclobutoxy)pyridin-3-yl)acetamido)pyridazin-3-yl)butyl)-N-methyl-1H-1,2,3-triazole-4-carboxamide] is below 100 nM; for `O=C(Cc1ccccn1)Nc1ccc(CCCCn2cc(C(=O)NCc3cc(C(F)(F)F)ccn3)nn2)nn1` [Example 203, 1-(4-(6-(2-(pyridin-2-yl)acetamido)pyridazin-3-yl)butyl)-N-((4-(trifluoromethyl)pyridin-2-yl)methyl)-1H-1,2,3-triazole-4-carboxamide] it is below 100 nM.
As for `CNC(=O)c1cn(CCCCc2ccc(NC(=O)Cc3cc(C4CC4)ccn3)nn2)nn1` [Example 190, 1-(4-{6-[2-(4-cyclopropylpyridin-2-yl)acetamido]pyridazin-3-yl}butyl)-N-methyl-1H-1,2,3-triazole-4-carboxamide], the IC50 was below 100 nM.
On the same count and under the same terms, the figure for `CNC(=O)c1cn(CCCCc2ccc(NC(=O)Cc3cc(-c4cc(F)ccc4C)ccn3)nn2)nn1` [Example 609, 1-(4-(6-(2-(4-(5-fluoro-2-methylphenyl)pyridin-2-yl)acetamido)pyridazin-3-yl)butyl)-N-methyl-1H-1,2,3-triazole-4-carboxamide] is below 100 nM; for `O=C(Cc1cncc(OC2CC(F)(F)C2)c1)Nc1ccc(CCCCn2cc(C(=O)NCc3ccccn3)nn2)nn1` [Example 231, 1-(4-(6-(2-(5-(3,3-difluorocyclobutoxy)pyridin-3-yl)acetamido)pyridazin-3-yl)butyl)-N-(pyridin-2-ylmethyl)-1H-1,2,3-triazole-4-carboxamide] it is below 100 nM; for `CNC(=O)c1cn(CCCCc2ccc(NC(=O)Cc3cc(-c4ccc(F)cc4C(F)(F)F)ccn3)nn2)nn1` [Example 606, 1-(4-(6-(2-(4-(4-fluoro-2-(trifluoromethyl)phenyl)pyridin-2-yl)acetamido)pyridazin-3-yl)butyl)-N-methyl-1H-1,2,3-triazole-4-carboxamide] it is below 100 nM.
Still for that read-out and setting: the result for `CNC(=O)c1cn(CCCCc2ccc(NC(=O)Cc3cc(Br)ccn3)nn2)nn1` [Example 200, 1-(4-(6-(2-(4-bromopyridin-2-yl)acetamido)pyridazin-3-yl)butyl)-N-methyl-1H-1,2,3-triazole-4-carboxamide] reads below 100 nM; that for `CNC(=O)c1cn(CCCCc2ccc(NC(=O)Cc3cc(-c4cccc(Cl)c4OC(F)(F)F)ccn3)nn2)nn1` [Example 608, 1-(4-(6-(2-(4-(3-chloro-2-(trifluoromethoxy)phenyl)pyridin-2-yl)acetamido)pyridazin-3-yl)butyl)-N-methyl-1H-1,2,3-triazole-4-carboxamide], below 100 nM.
